Experiments:
[1] = Metabolites in human liver microsomes (systems I-human, II-human); assay type: in vitro ADME
Protocol: Then, NADPH-B (10 μl) was added and the mixed solution incubated for 2 h. […] Next, UDPGA (50 μl) was added and the mixed solution incubated for 2 h. In addition, the naringenin solution (1 mM, 10 μl) was evaluated in human systems I and II as above.
(§1) The incubated solution (500 μl) of systems I-rat, II-rat, III-rat, I-human, and II-human were extracted with ethyl acetate (500 μl) for at least 3 min by vortexing and centrifuged for 10 min at 13,000 rpm and 4°C. The extraction process described above was performed twice and all supernatants were transferred into centrifuge tubes, dried with N2, and dissolved with methanol-water (1:1, v/v). All samples were injected into a UPLC/Q-TOF-MS system consisting of a Waters Acquity ultra performance liquid chromatography (UPLC) coupled with a Micromass micro™ quadrupole time-of-flight mass spectrometry (Q-TOF-MS) system (Waters Corp., Milford, MA, USA), equipped with an electrospray ionization source, and controlled by the MassLynx (v. 4.1) software. Separation was performed on a Waters Acquity UPLC BEH C18 column (50 mm × 2.1 mm, 1.7 μm) at 40°C. The mobile phase consisted of 0.1% formic acid (v/v) in water (A) and methanol (B) using a linear gradient of 95% to 60% A (0–25 min), 60% to 40% A (25–35 min), 40% to 10% A (35–40 min), 10% A (40–43 min), 10% to 95% A (43–44 min), and 95% A (44–45 min). The injection volume was 5 μl with flow rate of 0.2 ml min^-1. The Q-TOF-MS worked in a full scan mode (100–1,200 m/z), selection ion mode, and product ion mode, in negative ion mode, respectively. The conditions were as follows: capillary voltage 3,000 V, sample cone voltage 30 V, extraction cone voltage 2.0 V, source temperature 100°C, desolvation temperature 350°C, cone gas (N2) flow rate of 40 L/h, desolvation gas (N2) flow rate of 700 L/h, low collision energy 6.0 eV, and high collision energy 20–80 eV. Compounds were detected with accurate mass using leucine enkephalin for mass correction at 554.2615 (m/z) in negative ionization mode.

[2] = Metabolites in rat liver microsomes (systems I-rat, II-rat); assay type: in vitro ADME, Sprague-Dawley rat
Protocol: Then, NADPH-B (10 μl) was added and incubated for 2 h. […] Then, UDPGA (50 μl) was added and incubated for 2 h. […] Then, UDPGA (50 μl) was added and incubated for 2 h. In addition, the naringenin solution (1 mM, 10 μl) was evaluated in rat systems I, II, and III as above.
as §1

found in human liver microsomes, incubation of naringenin (S) [1]	found in rat liver microsomes, incubation of naringenin (S) [2]	Structure (SMILES)
+	+	O=c1cc(-c2ccc(O)cc2)oc2cc(O)cc(O)c12 [M6, Apigenin]
+	+	O=C1C[C@@H](c2ccc(O)c(O)c2)Oc2cc(O)cc(O)c21 [M7, Eriodictyol]
	+	COc1ccc([C@@H]2CC(=O)c3c(O)cc(O)cc3O2)cc1O [M8, Hesperetin]

Reference: PMC7118210 (Frontiers in Pharmacology, 2020)
